Experimental data reported in article PMC12067093, “Discovery and optimisation of a covalent ligand for TRIM25 and its application to targeted protein ubiquitination” (Chemical Science, 2025).

Molecular target: T1, TRIM25 PRYSPRY and BRD4 BD2 ternary complex (Homo sapiens, UniProt O60885+Q14258)
T1 construct: made in house; host or cells: Sf9 insect cells (TRIM25 PRYSPRY)
Assay: Recombinant protein ternary complex pull-down
Format: binding
Conditions: TRIM25 PRYSPRY pre-labelled with compound 50 μM overnight, intermediate wash step, then BRD4 BD2
Procedure: 3 25 mM HEPES, 50 mM NaCl for 20 h at 4 °C, before purification by gel filtration into
4 buffer 20 mM Bis-Tris pH 7.5, 150 mM NaCl, 0.5 mM TCEP. Commercially available
5 sitting drop crystallization screens were dispensed at 20 °C using an automated
6 Mosquito machine (TTP Labtech). Crystals grew from a pre-labelled protein-ligand
8 drops containing 100 nL protein-ligand complex and 100 nL reservoir solution. For X-
9 ray data acquisition, crystals were cryoprotected with perfluoropolyether cryo oil
10 (Hampton Research, HR2-814). Diffraction data were collected on beamline I04 (λ =
11 0.9537 Å) at Diamond Light Source (Oxford, UK), processed using DIALS17 and
12 merged and scaled using AIMLESS.18 The structure of the complex was solved by
13 molecular replacement using the available TRIM25 PRYSPRY structure (6FLM)10 as
15 in Coot20 and refined using Refmac21 and Phenix.19 Coordinates and structure factors
16 are deposited in the Protein Data Bank under accession code 9I0T. Further details on
17 data collection and refinement statistics are summarised in Supplementary Table 1.
20 Recombinant TRIM25 PRYSPRY (100 µM) in 25 mM HEPES pH 7.5, 50 mM NaCl,
23 acquired with Topspin (Bruker) at timepoint 0 (immediately after mixing protein with
24 compound), and after 4 h incubation.
26 Recombinant protein ternary complex pull-down assays
27 His10-TRIM25 or His6-TRIM25 PRYSPRY (4 µM) was pre-labelled with either DMSO
28 (1%) or heterobifunctional compounds (HB1, HB2 or HB3, 50 µM, 1% DMSO) and
29 captured on His Mag Sepharose Ni magnetic beads, and washed once to remove
30 excess unreacted compound, as described above.
32 Substrate (BRD4 or BRD4 BD2) (4 µM, assuming 1:1 with on-bead captured TRIM25-
33 compound complex) was added to the on-bead captured TRIM25-compound complex,
1 and incubated in capture buffer 50 mM Tris pH 7.5, 150 mM NaCl, 5 mM MgCl2, 20 mM
2 imidazole, 0.5 mM TCEP, 0.5% IGEPAL for 2 h at 4 °C, with rotation. Beads were
3 washed three times with 500 µL capture buffer, and mixed with 12 µL NuPAGE LDS
4 sample buffer (1x, Invitrogen, NP0007). Samples were analysed by SDS-PAGE and […]

T1 sequence (Q14258 435-630, other chains not shown): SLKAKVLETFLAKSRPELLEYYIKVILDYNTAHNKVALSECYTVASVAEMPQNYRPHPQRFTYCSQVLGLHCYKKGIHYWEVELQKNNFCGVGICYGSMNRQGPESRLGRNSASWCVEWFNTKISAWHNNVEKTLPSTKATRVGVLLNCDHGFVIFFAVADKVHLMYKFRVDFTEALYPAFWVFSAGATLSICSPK

In vitro ternary complex formation (pull-down), Ternary complex formation was observed:
Cc1cc(C(=O)N2CCCN(C(=O)CCl)CC2)ccc1-c1cccc(C(=O)NCCOCCOCCOCCOCCNC(=O)C[C@@H]2N=C(c3ccc(Cl)cc3)c3c(sc(C)c3C)-n3c(C)nnc32)c1 [HB3]
Cc1cc(C(=O)N2CCCN(C(=O)CCl)CC2)ccc1-c1cccc(C(=O)NCCOCCOCCNC(=O)C[C@@H]2N=C(c3ccc(Cl)cc3)c3c(sc(C)c3C)-n3c(C)nnc32)c1 [HB1]
Cc1cc(C(=O)N2CCCN(C(=O)CCl)CC2)ccc1-c1cccc(C(=O)NCCOCCOCCOCCNC(=O)C[C@@H]2N=C(c3ccc(Cl)cc3)c3c(sc(C)c3C)-n3c(C)nnc32)c1 [HB2]
